Data set [1] deals with Gram positive bacteria, especially methicillin resistant staphylococcus and methicillin resistant coagulase negative staphylococcus. Conditions: cited from earlier work.
Data set [2] in a line: Stability test (Test 3), closed vial, HPLC area percentage of Compound A. In kind it is physicochemical. The protocol: Stability test on each test sample was conducted under following storage conditions.
(§1) Column: SUMIPAX ODS-A212 (silica gel binding with octadecyl group, particle size 5 μm; 6.0 mm φ×15 cm), mobile phase A solution: a mixture of 0.005 mol/L phosphate buffer (pH7.0) and acetonitrile (300:23(v/v)), mobile phase B solution: acetonitrile, solvent for sample: water and acetonitrile (90:10(v/v)), wavelength: 220 nm, column temperature: constant temperature around 25° C., flow rate: 1.0 mL/min, injection amount: 10 μL, and gradient condition: […]

Data set [3] can be described thus: Stability test on Form I crystal under humidity condition (Test 4). Conditions: usual handling condition. In kind it is physicochemical.
Excerpt: Evaluation was based on change of area percentage of Compound A with HPLC (High Performance Liquid Chromatography) under following conditions:
as §1
In order to confirm the stability on Form I crystal under humidity condition was conducted following test. The test was carried out by using moisture-absorbed Form I crystal, which was prepared by storing Form I crystal obtained by the method of Example 2 under the atmosphere with 53% RH in a whole day in order to make it absorb moisture.

The values below come from US20100286389A1, “STABLE CRYSTAL OF BETA-LACTAM COMPOUND” (priority 2007, published 2010).

With `C[C@H]1C=C(c2csc(SC3=C(C(=O)O)N4C(=O)[C@H]([C@@H](C)O)[C@H]4[C@H]3C)n2)CN1` [Compound A, (4R,5S,6S)-6-[(1R)-1-hydroxyethyl]-4-methyl-3-({4-[(5S)-5-methyl-2,5-dihydro-1H-pyrrol-3-yl]-1,3-thiazol-2-yl}thio)-7-oxo-1-azabicyclo[3.2.0]hept-2-ene-2-carboxylic acid], in data set [1], the “Activity against Gram positive bacteria” value is reported as “excellent activity”.

For `C[C@H]1C=C(c2csc(SC3=C(C(=O)O)N4C(=O)[C@H]([C@@H](C)O)[C@H]4[C@H]3C)n2)CN1` [Form I crystal, (4R,5S,6S)-6-[(1R)-1-hydroxyethyl]-4-methyl-3-({4-[(5S)-5-methyl-2,5-dihydro-1H-pyrrol-3-yl]-1,3-thiazol-2-yl}thio)-7-oxo-1-azabicyclo[3.2.0]hept-2-ene-2-carboxylic acid], the “Compound A (HPLC surface area %)” value in data set [2] (closed vial at 55° C., 2 weeks) was 99.60%; in data set [2] (closed vial at 55° C., 4 weeks) it was 99.60%; in data set [2] (closed vial at 55° C., Initial), 99.77%. Besides, the “Difference from initial value (HPLC surface area %)” value was −0.17% in data set [2] (closed vial at 55° C., 2 weeks); −0.17% in data set [2] (closed vial at 55° C., 4 weeks); 0% in data set [2] (closed vial at 55° C., Initial). Moreover, the Stability in words result in data set [2] (normal / usual storage condition, conclusion from the stability tests) is given as “extremely stable”; in data set [3], “excellent”. For the same molecule, in data set [3], the “Moisture absorption in words” value was “absorbs a little moisture”.

With `C[C@H]1C=C(c2csc(SC3=C(C(=O)O)N4C(=O)[C@H]([C@@H](C)O)[C@H]4[C@H]3C)n2)CN1` [amorphous Compound A, (4R,5S,6S)-6-[(1R)-1-hydroxyethyl]-4-methyl-3-({4-[(5S)-5-methyl-2,5-dihydro-1H-pyrrol-3-yl]-1,3-thiazol-2-yl}thio)-7-oxo-1-azabicyclo[3.2.0]hept-2-ene-2-carboxylic acid], the “Compound A (HPLC surface area %)” value is reported as 73.40% in data set [2] (closed vial at 50° C., 1 week); 54.53% in data set [2] (closed vial at 50° C., 3 weeks); 39.93% in data set [2] (closed vial at 50° C., 6 weeks); 41.33% in data set [2] (closed vial at 50° C., 8 weeks); 91.68% in data set [2] (closed vial at 50° C., 1 day); 97.95% in data set [2] (closed vial at 50° C., Initial).
